Like-named read-outs stand apart in the source and are kept apart here.
How the values were obtained:
[1] = molecular target: mouse Smoothened receptor (Mus musculus, UniProt P56726); experiment: Smo binding assay, displacement of radio-labeled smoothened agonist, filter binding format (mouse); settings: displacement of small molecule agonist of Smoothened, read-out: Mouse Smo bdg., IC50
From the text: A Smo binding assay was developed using radio-labeled smoothened agonist for compound competition.

Gli-luciferase activity = experiment: Reporter gene assay (RGA) in TMHh12 cells, antagonism of Gli-luciferase activity in the presence of a Smo agonist; assay type: cell-based
Experimental: Activity of the compounds was evaluated using a reporter gene assay (RGA) in TMHh12 cells.

[2] = molecular target: human Smoothened receptor (Homo sapiens, UniProt Q99835); experiment: Smo binding assay, displacement of radio-labeled smoothened agonist, filter binding format (human); settings: displacement of small molecule agonist of Smoothened, read-out: Human Smo bdg., IC50
human Smoothened receptor, sequence (Q99835 28-787): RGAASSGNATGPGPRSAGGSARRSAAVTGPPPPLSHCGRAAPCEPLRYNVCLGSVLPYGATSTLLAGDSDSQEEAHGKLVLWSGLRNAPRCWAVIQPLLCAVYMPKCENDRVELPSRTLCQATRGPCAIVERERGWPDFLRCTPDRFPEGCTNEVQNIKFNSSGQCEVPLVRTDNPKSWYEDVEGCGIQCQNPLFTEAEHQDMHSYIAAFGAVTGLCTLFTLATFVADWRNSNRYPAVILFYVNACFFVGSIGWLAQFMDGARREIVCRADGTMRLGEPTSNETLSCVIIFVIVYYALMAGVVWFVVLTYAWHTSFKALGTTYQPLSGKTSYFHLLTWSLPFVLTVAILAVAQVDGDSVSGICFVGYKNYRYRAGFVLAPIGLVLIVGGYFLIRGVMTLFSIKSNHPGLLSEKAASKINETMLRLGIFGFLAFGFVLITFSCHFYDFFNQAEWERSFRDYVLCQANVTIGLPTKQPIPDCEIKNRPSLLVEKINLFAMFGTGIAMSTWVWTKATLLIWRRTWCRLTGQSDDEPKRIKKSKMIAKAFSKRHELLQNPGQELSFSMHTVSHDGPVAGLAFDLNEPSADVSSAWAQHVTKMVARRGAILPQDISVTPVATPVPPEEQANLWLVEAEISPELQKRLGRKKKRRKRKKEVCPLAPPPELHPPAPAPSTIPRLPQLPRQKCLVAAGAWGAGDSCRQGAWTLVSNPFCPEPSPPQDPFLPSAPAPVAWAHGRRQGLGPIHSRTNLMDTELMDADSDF
From the text: A Smo binding assay was developed using radio-labeled smoothened agonist for compound competition. Table 9 lists the IC50 for displacement of a small molecule agonist of Smoothened determined in a filter binding format for the mouse and human Smoothened receptor.

[3] = 25 nM small molecule Smo agonist, read-out: RGA (25 nM Smo agonist) IC50
[4] = read-out: RGA (1 nM Smo agonist) IC50, 1 nM small molecule Smo agonist

mouse Smoothened receptor, sequence (P56726 33-793): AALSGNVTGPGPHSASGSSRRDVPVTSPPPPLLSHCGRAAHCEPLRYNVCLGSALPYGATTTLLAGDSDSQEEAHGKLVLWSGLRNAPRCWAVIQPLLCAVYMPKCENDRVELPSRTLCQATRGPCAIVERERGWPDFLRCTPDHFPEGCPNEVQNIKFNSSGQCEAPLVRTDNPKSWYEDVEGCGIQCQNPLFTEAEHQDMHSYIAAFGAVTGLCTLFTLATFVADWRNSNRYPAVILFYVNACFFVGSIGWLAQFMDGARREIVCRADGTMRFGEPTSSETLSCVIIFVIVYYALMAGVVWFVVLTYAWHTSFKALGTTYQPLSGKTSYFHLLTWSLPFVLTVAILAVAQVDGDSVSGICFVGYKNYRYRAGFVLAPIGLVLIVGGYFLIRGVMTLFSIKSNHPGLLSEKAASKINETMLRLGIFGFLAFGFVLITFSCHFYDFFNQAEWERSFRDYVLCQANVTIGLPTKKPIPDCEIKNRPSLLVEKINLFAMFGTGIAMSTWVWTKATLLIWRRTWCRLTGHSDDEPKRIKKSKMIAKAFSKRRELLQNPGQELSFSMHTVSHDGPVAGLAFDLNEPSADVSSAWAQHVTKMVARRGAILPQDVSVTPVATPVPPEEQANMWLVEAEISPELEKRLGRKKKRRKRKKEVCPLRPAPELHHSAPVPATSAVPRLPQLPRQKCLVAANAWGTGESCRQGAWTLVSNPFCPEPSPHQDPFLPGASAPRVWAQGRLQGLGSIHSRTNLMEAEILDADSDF

SMILES	IC50 [1] [nM]	IC50 (Gli-luciferase activity; [3]) [nM]	IC50 (Gli-luciferase activity; [4]) [nM]	IC50 [2] [nM]
CC(O)(CN1CCC(O)CC1)c1cnc(N2CCN(c3nnc(Cc4ccccc4)c4ccccc34)CC2)cn1 (stereo not drawn) [Example 170, 1-{2-[4-(4-Benzyl-phthalazin-1-yl)-3,4,5,6-tetrahydro-2H-[1,2′]bipyrazinyl-5′-yl]-2-hydroxy-propyl}-piperidin-4-ol]	100 to 1000	100 to 1000	< 100	100 to 1000
N#Cc1ccc(N2CCN(c3nnc(Cc4ccc(C(F)(F)F)cc4)c4ccccc34)CC2)nc1 [Example 63]	100 to 1000	1000 to 10000	100 to 1000	100 to 1000
CCOC(=O)c1cnc(N2CCN(c3nnc(Cc4ccccc4)c4ccccc34)C[C@H]2C(=O)OC)nc1C(F)(F)F [Example 147, 2-[(S)-4-(4-Benzyl-phthalazin-1-yl)-2-methoxycarbonyl-piperazin-1-yl]-4-trifluoromethyl-pyrimidine-5-carboxylic acid ethyl ester]	100 to 1000	1000 to 10000	100 to 1000	< 100
O=C(c1ccc(C(F)(F)F)cc1)N1CCC(c2cn(Cc3ccc(F)cc3)c3ccccc23)CC1 [Example 104]	1000 to 10000	10000 to 40000	1000 to 10000	1000 to 10000
CC(=O)NCc1ccc(N2CCN(c3nnc(Cc4ccccc4)c4ccccc34)CC2)nc1 [Example 70, N-{6-[4-(4-Benzyl-phthalazin-1-yl)-piperazin-1-yl]-pyridin-3-ylmethyl}-acetamide]	100 to 1000	100 to 1000	< 100	100 to 1000
Fc1cnc(N2CCN(c3nnc(Cc4ccccc4)c4ccccc34)CC2)c(F)c1 [Example 52]	100 to 1000	1000 to 10000	100 to 1000	100 to 1000
O=C(NC1CN(C(=O)OCc2ccccc2)C1)c1ccc(N2CCN(c3nnc(Cc4ccccc4)c4ccccc34)CC2)nc1 [Example 54x]	100 to 1000	100 to 1000	100 to 1000	< 100
CCC(=O)NCc1ccc(N2CCN(c3nnc(Cc4ccccc4)c4ccccc34)CC2)nc1 [Example 207]	100 to 1000	100 to 1000	< 100	100 to 1000
N#Cc1ccc(N2CCC(c3cn(Cc4ccc(F)cc4)c4ccccc34)CC2)nc1 [Example 98]	1000 to 10000	1000 to 10000	100 to 1000	1000 to 10000
CN(C)C(=O)c1cnc(N2CCN(c3nnc(Cc4ccccc4)c4ccccc34)CC2)nc1 [Example 54aa]	100 to 1000	100 to 1000	< 100	100 to 1000
COc1cc(=O)[nH]c(N2CCN(c3nnc(Cc4ccccc4)c4ccccc34)CC2)n1 [Example 46]	100 to 1000	10000 to 40000	1000 to 10000	100 to 1000
N#Cc1ccc(C(=O)N2CCC(c3cn(Cc4ccc(F)cc4)c4ccccc34)CC2)cc1 [Example 102]	100 to 1000	–	100 to 1000	100 to 1000
CN1CCN(C(=O)c2ccc(N3CCN(c4nnc(Cc5ccccc5)c5ccccc45)CC3)nc2)CC1 [Example 54i]	100 to 1000	1000 to 10000	100 to 1000	1000 to 10000
Cc1cc(Cc2ccc(Cl)cc2)nnc1N1CCN(c2ccc(C#N)cn2)CC1 [Example 92]	100 to 1000	1000 to 10000	100 to 1000	100 to 1000
N#Cc1ccc(N2CCN(c3nnc(Cc4ccc(Cl)c(Cl)c4)c4ccccc34)CC2)nc1 [Example 176]	100 to 1000	1000 to 10000	100 to 1000	100 to 1000
CC(C)n1cc2c(Cc3ccccc3)nnc(N3CCN(c4ccc(C(F)(F)F)cn4)CC3)c2c1 [Example 244, 1-benzyl-6-isopropyl-4-(4-(5-(trifluoromethyl)pyridin-2-yl)piperazin-1-yl)-6H-pyrrolo[3,4-d]pyridazine]	100 to 1000	1000 to 10000	1000 to 10000	100 to 1000

Second part, the molecule after the results:

IC50 [1] [nM]	IC50 (Gli-luciferase activity; [3]) [nM]	IC50 (Gli-luciferase activity; [4]) [nM]	IC50 [2] [nM]	SMILES
100 to 1000	1000 to 10000	< 100	100 to 1000	FC(F)(F)c1ccc(N2CCN(c3nnc(Cc4ccccc4)c4occc34)CC2)nc1 [Example 245, 7-Benzyl-4-[4-(5-trifluoromethyl-pyridin-2-yl)-piperazin-1-yl]-furo[2,3-d]pyridazine]
< 100	100 to 1000	< 100	100 to 1000	N#Cc1ccc(N2CCN(c3nnc(Cc4ccc(F)cc4)c4ccccc34)CC2)nc1 [Example 181]
< 100	< 100	< 100	< 100	CC(C)(O)Cc1ccc(N2CCN(c3nnc(Cc4ccccc4)c4ccccc34)CC2)nc1 [Example 172, 1-{6-[4-(4-Benzyl-phthalazin-1-yl)-piperazin-1-yl]-pyridin-3-yl}-2-methyl-propan-2-ol]
< 100	100 to 1000	< 100	< 100	OC(c1ccc(N2CCN(c3nnc(Cc4ccccc4)c4ccccc34)CC2)nc1)C(F)(F)F (stereo not drawn) [Example 109]
< 100	100 to 1000	< 100	< 100	CN(C)CC(C)(O)c1cnc(N2CCN(c3nnc(Cc4ccccc4)c4ccccc34)CC2)cn1 (stereo not drawn) [Example 169, 2-[4-(4-Benzyl-phthalazin-1-yl)-3,4,5,6-tetrahydro-2H-[1,2′]bipyrazinyl-5′-yl]-1-dimethylamino-propan-2-ol]
< 100	100 to 1000	< 100	< 100	N#Cc1ccc(N2CCN(c3nnc(Cc4ccc(Br)cc4)c4ccccc34)CC2)nc1 [Example 66]
100 to 1000	1000 to 10000	100 to 1000	100 to 1000	FC(F)(F)c1ccc(N2CCN(c3nnc(Cc4ccccc4)c4ccccc34)CC2)cc1 [Example 55, 1-Benzyl-4-[4-(4-trifluoromethyl-phenyl)-piperazin-1-yl]-phthalazine]
< 100	100 to 1000	< 100	< 100	Cc1ccc(Cc2nnc(N3CCN(c4ccc(C#N)cn4)CC3)c3ccccc23)cc1 [Example 173]
< 100	100 to 1000	< 100	< 100	NS(=O)(=O)c1ccc(N2CCN(c3nnc(Cc4ccccc4)c4ccccc34)CC2)nc1 [Example 132]
< 100	100 to 1000	< 100	< 100	N#Cc1ccc(N2CCN(c3nnc(Cc4ccc(F)cc4)c4c3CCC4)CC2)nc1 [Example 93c, 6-{4-[4-(4-Fluoro-benzyl)-6,7-dihydro-5H-cyclopenta[d]pyridazin-1-yl]-piperazin-1-yl}-nicotinonitrile]
< 100	< 100	< 100	< 100	COC(C)(C)c1ccc(N2CCN(c3nnc(Cc4ccccc4)c4ccccc34)CC2)nc1 [Example 161, 1-Benzyl-4-{-4-[5-(1-methoxy-1-methyl-ethyl)-pyridin-2-yl]-piperazin-1-yl}-phthalazine]
< 100	100 to 1000	100 to 1000	< 100	CCOC(=O)c1ccc(N2CCN(c3nnc(Cc4ccccc4F)c4ccccc34)CC2)nc1 [Example 184]
< 100	100 to 1000	< 100	100 to 1000	O=C(c1cnc(N2CCN(c3nnc(Cc4ccccc4)c4ccccc34)CC2)nc1)N1CCOCC1 [Example 54bb]
< 100	100 to 1000	< 100	< 100	CC(O)(CO)c1cnc(N2CCN(c3nnc(Cc4ccccc4)c4ccccc34)CC2)cn1 (stereo not drawn) [Example 166, 2-[4-(4-Benzyl-phthalazin-1-yl)-3,4,5,6-tetrahydro-2H-[1,2′]bipyrazinyl-5′-yl]-propane-1,2-diol]
< 100	100 to 1000	< 100	< 100	C[C@@H]1CN(c2nnc(Cc3ccccc3)c3ccccc23)CCN1c1ccc(C#N)cn1 [Example 142, 6-[(R)-4-(4-Benzyl-phthalazin-1-yl)-2-methyl-piperazin-1-yl]-nicotinonitrile]
< 100	100 to 1000	100 to 1000	< 100	FC1(F)CN(Cc2ccc(N3CCN(c4nnc(Cc5ccccc5)c5ccccc45)CC3)nc2)C1 [Example 229]
< 100	100 to 1000	< 100	< 100	CN(CCO)C(=O)c1ccc(N2CCN(c3nnc(Cc4ccccc4Cl)c4ccccc34)CC2)nc1 [Example 200]
< 100	100 to 1000	< 100	100 to 1000	CC(C)(O)c1ccc(N2CCN(c3nnc(Cc4ccccc4)c4ccccc34)CC2)nn1 [Example 152]
< 100	100 to 1000	< 100	< 100	CC(C)(O)c1ccc(N2CCN(c3nnc(Cc4ccccc4Cl)c4ccccc34)CC2)nc1 [Example 192]
< 100	100 to 1000	< 100	< 100	CC(O)c1ccc(N2CCN(c3nnc(Cc4ccccc4)c4ccccc34)CC2)nc1 (stereo not drawn) [Example 163, 1-{6-[4-(4-Benzyl-phthalazin-1-yl)-piperazin-1-yl]-pyridin-3-yl}-ethanol]
< 100	< 100	< 100	< 100	CC(=O)NC(C)(C)c1ccc(N2CCN(c3nnc(Cc4ccccc4)c4ccccc34)CC2)nc1 [Example 162, N-(1-{6-[4-(4-Benzyl-phthalazin-1-yl)-piperazin-1-yl]-pyridin-3-yl}-1-methyl-ethyl)-acetamide]

From patent publication US8536168B2 (Novartis AG, priority 2007, dated 2013)
